Data reported in US20250144067A1, “PERSONALIZED STARVATION THERAPY FOR CANCER” (Faeth Therapeutics, Inc., priority 2021, published 2025).
Counter-ions that a name gives are not always drawn.

What was measured:
[1] = test system: NCI-H292 lung cancer cells; assay: FDA drug screening, complete media vs cholesterol-free media without statin (TABLE 1); format: cell-based, human
[2] = test system: NCI-H292 lung cancer cells; assay: FDA drug screening, complete media vs cholesterol-free media with simvastatin (TABLE 2); format: cell-based, human; conditions: for Cholesterol-free media + simvastatin (0.04 μM) / Complete Media: NCI-H292 cells
[3] = Complete minus Cholesterol-free, greater than 0 enhanced anti-cancer activity, about 0 neutral, below 0 antagonist
[4] = NCI-H292 cells, FDA drug library screen, cholesterol-free media without statin
[5] = NCI-H292 cells, FDA drug library screen, complete media
[6] = FDA library drug in cholesterol-free media with simvastatin 0.04 μM
[7] = FDA library drug in complete media
[8] = complete media vs cholesterol-free media + simvastatin (0.04 μM), >0 enhanced anti-cancer activity, about 0 neutral, <0 antagonist
[9] = complete vs cholesterol-free media, greater than 0 enhanced anti-cancer activity, about 0 neutral, below 0 antagonists
[10] = FDA drug library screen, cholesterol-free media with simvastatin 0.04 μM
[11] = FDA drug library screen, complete media
[12] = complete media minus cholesterol-free media + simvastatin, >0 enhanced anti-cancer activity, about 0 neutral, <0 antagonist
[13] = Complete minus Cholesterol-free, >0 enhanced anti-cancer activity, about 0 neutral, <0 antagonist
[14] = NCI-H292 cells, cholesterol-free media without statin
[15] = drug in cholesterol-free media with simvastatin 0.04 μM
[16] = NCI-H292 cells, cholesterol-free media without statin, FDA drug library screen
[17] = NCI-H292 cells, complete media, FDA drug library screen
[18] = complete vs cholesterol-free media, >0 enhanced anti-cancer activity, about 0 neutral, <0 antagonist
[19] = cholesterol-free media with simvastatin 0.04 μM, cell growth value in FDA drug screen
[20] = complete media, cell growth value in FDA drug screen
[21] = cholesterol-free media with simvastatin 0.04 μM, FDA drug library screen (TABLE 2)
[22] = complete media, FDA drug library screen (TABLE 2)
[23] = complete media minus cholesterol-free media + simvastatin (0.04 μM), >0 enhanced anti-cancer activity, about 0 neutral, <0 antagonist
[24] = NCI-H292 cells in cholesterol-free media without statin
[25] = NCI-H292 cells in complete media
[26] = Complete minus Cholesterol-free, greater than 0 enhanced anti-cancer activity, about 0 neutral, below 0 antagonists

Cc1ccc(/C(=C\CN2CCCC2)c2ccccn2)cc1 [Triprolidine (hydrochloride monohydrate)]
Difference [1, 3]: −0.13
Cholesterol-free [1, 4]: 1.24
Complete [1, 5]: 1.107
Cholesterol-free media + simvastatin (0.04 μM) [2, 6]: 1.806
Complete Media [2, 7]: 1.191
Difference [2, 8]: −0.61

CCOc1ccc(Cc2cc([C@@H]3O[C@H](CO)[C@@H](O)[C@H](O)[C@H]3O)ccc2Cl)cc1
Complete ([1]; NCI-H292 cells, complete media): 0.6259
Difference [1, 9]: −0.32
Cholesterol-free media + simvastatin (0.04 μM) [2, 10]: 0.9312
Complete Media [2, 11]: 1.177
Difference [2, 12]: 0.25

CCCN(CCC)C(=O)C(CCC(=O)O)NC(=O)c1ccccc1 (stereo not shown) [Proglumide (sodium)]
Difference [1, 13]: −0.28
Cholesterol-free [1, 14]: 1.258
Complete ([1]; NCI-H292 cells, complete media): 0.9781
Cholesterol-free media + simvastatin (0.04 μM) [2, 15]: 1.215
Complete Media ([2]; drug in complete media): 0.9616
Difference [2, 8]: −0.25

CC(=O)Oc1c(C)c(C)c2c(c1C)CCC(C)(CCC[C@H](C)CCC[C@H](C)CCCC(C)C)O2 (stereo partly drawn) [D-α-Tocopherol acetate]
Cholesterol-free [1, 16]: 0.7729
Complete [1, 17]: 1.233
Difference [1, 18]: 0.46
Cholesterol-free media + simvastatin (0.04 μM) [2, 19]: 0.8974
Complete Media [2, 20]: 1.003
Difference [2, 12]: 0.11

CC(C)(C)NCC(O)COc1cccc2c1CCC(=O)N2 (stereo not shown) [Carteolol hydrochloride]
Difference [1, 3]: −0.19
Cholesterol-free [1, 4]: 1.114
Complete [1, 5]: 0.9284
Cholesterol-free media + simvastatin (0.04 μM) [2, 15]: 1.125
Complete Media ([2]; drug in complete media): 0.8865
Difference [2, 8]: −0.24

Cl.NCCC[C@](N)(C(=O)O)C(F)F [L-Eflornithine (monohydrochloride)]
Difference [1, 13]: 0.02
Cholesterol-free [1, 16]: 0.8255
Complete [1, 17]: 0.8469
Cholesterol-free media + simvastatin (0.04 μM) [2, 21]: 1.266
Complete Media [2, 22]: 1.268
Difference [2, 23]: 0.00

C=CCOc1ccccc1OCC(O)CNC(C)C (stereo not shown) [Oxprenolol (hydrochloride)]
Cholesterol-free [1, 16]: 1.177
Complete [1, 17]: 1.262
Difference [1, 18]: 0.09
Cholesterol-free media + simvastatin (0.04 μM) [2, 19]: 0.8718
Complete Media [2, 20]: 0.9135
Difference [2, 12]: 0.04

O=P(O)(O)C(Cl)(Cl)P(=O)(O)O [Clodronic acid (disodium salt)]
Difference [1, 13]: 0.00
Cholesterol-free [1, 16]: 0.9505
Complete [1, 17]: 0.955
Cholesterol-free media + simvastatin (0.04 μM) [2, 6]: 1.883
Complete Media [2, 7]: 1.075
Difference [2, 8]: −0.81

Oc1c(Br)cc(Br)c2cccnc12 [Broxyquinoline]
Cholesterol-free [1, 16]: 1.044
Complete [1, 17]: 1.24
Difference [1, 18]: 0.20
Cholesterol-free media + simvastatin (0.04 μM) [2, 10]: 1.072
Complete Media [2, 11]: 1.219
Difference [2, 12]: 0.15

COc1ccc2c(c1OC)C(=O)O[C@@H]2[C@H]1c2c(cc3c(c2OC)OCO3)CCN1C [Noscapine]
Difference [1, 13]: −0.20
Cholesterol-free [1, 14]: 1.288
Complete ([1]; NCI-H292 cells, complete media): 1.088
Cholesterol-free media + simvastatin (0.04 μM) [2, 10]: 0.7586
Complete Media [2, 11]: 1.21
Difference [2, 12]: 0.45

COc1ccc(CCO[C@@H]2CCCC[C@H]2N2CC[C@@H](O)C2)cc1OC [Vernakalant (Hydrochloride)]
Difference [1, 13]: −0.26
Cholesterol-free [1, 14]: 1.252
Complete ([1]; NCI-H292 cells, complete media): 0.9876
Cholesterol-free media + simvastatin (0.04 μM) [2, 19]: 1.555
Complete Media [2, 20]: 1.614
Difference [2, 12]: 0.06

CCOC(=O)c1cncn1[C@H](C)c1ccccc1 [Etomidate (hydrochloride)]
Difference ([1]; Complete minus Cholesterol-free, […]): −0.60
Cholesterol-free [1, 24]: 1.469
Complete [1, 25]: 0.8733
Cholesterol-free media + simvastatin (0.04 μM) [2, 10]: 0.8714
Complete Media [2, 11]: 1.097
Difference ([2]; complete media minus cholesterol-free media + simvastatin, […]): 0.23

N#Cc1ccc2[nH]cc(CCCCN3CCN(c4ccc5oc(C(N)=O)cc5c4)CC3)c2c1 [Vilazodone (Hydrochloride)]
Cholesterol-free [1, 14]: 1.019
Complete ([1]; NCI-H292 cells, complete media): 0.6984
Difference [1, 9]: −0.32
Cholesterol-free media + simvastatin (0.04 μM) [2, 10]: 0.5785
Complete Media [2, 11]: 0.8037
Difference [2, 12]: 0.23

CC/C=C\C/C=C\C/C=C\C/C=C\C/C=C\CCCC(=O)O [Eicosapentaenoic Acid]
Difference [1, 3]: −0.10
Cholesterol-free [1, 4]: 1.072
Complete [1, 5]: 0.969
Cholesterol-free media + simvastatin (0.04 μM) [2, 10]: 1.13
Complete Media [2, 11]: 1.471
Difference [2, 12]: 0.34

CCN[C@H]1CN(CCCOC)S(=O)(=O)c2sc(S(N)(=O)=O)cc21 [Brinzolamide]
Difference [1, 13]: 0.00
Cholesterol-free [1, 16]: 0.8738
Complete [1, 17]: 0.876
Cholesterol-free media + simvastatin (0.04 μM) [2, 19]: 1.105
Complete Media [2, 20]: 1.197
Difference [2, 12]: 0.09

C[C@H](CS)C(=O)N1CCC[C@H]1C(=O)O [Captopril]
Difference [1, 13]: −0.19
Cholesterol-free [1, 14]: 0.897
Complete ([1]; NCI-H292 cells, complete media): 0.704
Cholesterol-free media + simvastatin (0.04 μM) [2, 21]: 0.8354
Complete Media [2, 22]: 0.832
Difference [2, 23]: 0.00

C[N+](C)(C)CC(=O)O [Betaine (hydrochloride)]
Difference [1, 26]: −0.76
Cholesterol-free [1, 24]: 1.594
Complete [1, 25]: 0.8295
Cholesterol-free media + simvastatin (0.04 μM) [2, 15]: 1.292
Complete Media ([2]; drug in complete media): 1.099
Difference [2, 8]: −0.19

CN1[C@@H]2CC[C@H]1C[C@@H](OC(=O)c1c[nH]c3ccccc13)C2 [Tropisetron]
Cholesterol-free [1, 14]: 1.242
Complete ([1]; NCI-H292 cells, complete media): 0.8867
Difference [1, 9]: −0.36
Cholesterol-free media + simvastatin (0.04 μM) [2, 10]: 0.8445
Complete Media [2, 11]: 1.139
Difference [2, 12]: 0.29

CN1CCN(c2ccc(C(=O)Nc3n[nH]c4ccc(Cc5cc(F)cc(F)c5)cc34)c(NC3CCOCC3)c2)CC1 [Entrectinib]
Difference [1, 13]: −0.05
Cholesterol-free [1, 16]: 0.4371
Complete [1, 17]: 0.3827
Cholesterol-free media + simvastatin (0.04 μM) [2, 19]: 0.2455
Complete Media [2, 20]: 0.2696
Difference [2, 12]: 0.02

CCCCCCCCCCCCCCCCCC(=O)O [Stearic acid]
Difference [1, 3]: −0.14
Cholesterol-free [1, 4]: 1.159
Complete [1, 5]: 1.022
Cholesterol-free media + simvastatin (0.04 μM) [2, 10]: 1.741
Difference [2, 23]: −1.08

CC(C)[C@H](N)C(=O)OCCOCn1cnc2c(=O)[nH]c(N)nc21 [Valacyclovir (hydrochloride)]
Cholesterol-free [1, 14]: 1.143
Complete ([1]; NCI-H292 cells, complete media): 0.7981
Difference [1, 9]: −0.34
Cholesterol-free media + simvastatin (0.04 μM) [2, 10]: 0.9432
Complete Media [2, 11]: 1.26
Difference [2, 12]: 0.32

CC(C)=CCC/C(C)=C/CC/C(C)=C/CC/C(C)=C/CC1=C(C)C(=O)c2ccccc2C1=O [Menaquinone-4]
Cholesterol-free [1, 14]: 1.129
Complete ([1]; NCI-H292 cells, complete media): 0.777
Difference [1, 9]: −0.35
Cholesterol-free media + simvastatin (0.04 μM) [2, 6]: 1.094
Complete Media [2, 7]: 0.773
Difference [2, 8]: −0.32

Tafenoquine (Succinate)
Difference [1, 13]: −0.06
Cholesterol-free [1, 16]: 1.252
Complete [1, 17]: 1.196
Cholesterol-free media + simvastatin (0.04 μM) [2, 10]: 1.136
Complete Media [2, 11]: 1.045
Difference [2, 8]: −0.09

Asenapine (maleate)
Difference [1, 26]: −0.56
Cholesterol-free [1, 24]: 1.49
Complete [1, 25]: 0.9322
Cholesterol-free media + simvastatin (0.04 μM) [2, 15]: 1.309
Complete Media ([2]; drug in complete media): 1.135
Difference [2, 8]: −0.17

N#Cc1cc(NC(=O)C(=O)O)c(Cl)c(NC(=O)C(=O)O)c1 [Lodoxamide]
Difference [1, 13]: −0.26
Cholesterol-free [1, 14]: 1.144
Complete ([1]; NCI-H292 cells, complete media): 0.8858
Cholesterol-free media + simvastatin (0.04 μM) [2, 15]: 1.021
Complete Media ([2]; drug in complete media): 0.7589
Difference [2, 8]: −0.26

O=P(O)(O)C(O)(Cn1ccnc1)P(=O)(O)O [Zoledronic acid (monohydrate)]
Difference [1, 13]: −0.23
Cholesterol-free [1, 14]: 1.033
Complete ([1]; NCI-H292 cells, complete media): 0.8069
Cholesterol-free media + simvastatin (0.04 μM) [2, 10]: 0.7262
Complete Media [2, 11]: 0.8945
Difference [2, 12]: 0.17

NCCCC(N)(C(=O)O)C(F)F (stereo not shown) [Eflornithine (hydrochloride hydrate)]
Difference [1, 13]: −0.22
Cholesterol-free [1, 14]: 0.965
Complete ([1]; NCI-H292 cells, complete media): 0.7419
Cholesterol-free media + simvastatin (0.04 μM) [2, 15]: 1.426
Complete Media ([2]; drug in complete media): 1.224
Difference [2, 8]: −0.20

CCN(CC)C(=O)c1cccc(C)c1 [Diethyltoluamide]
Difference [1, 3]: −0.08
Cholesterol-free [1, 4]: 1.096
Complete [1, 5]: 1.015
Cholesterol-free media + simvastatin (0.04 μM) [2, 15]: 1.302
Complete Media ([2]; drug in complete media): 1.098
Difference [2, 8]: −0.20

CCCCCCCCc1ccc(CCC(N)(CO)CO)cc1 [Fingolimod]
Difference [1, 26]: −0.48
Cholesterol-free [1, 24]: 1.481
Complete [1, 25]: 0.9982
Cholesterol-free media + simvastatin (0.04 μM) [2, 10]: 1.233
Complete Media [2, 11]: 1.097
Difference [2, 8]: −0.14
